In ChEMBL document CHEMBL2163330, “Dynamic modeling of human 5-lipoxygenase-inhibitor interactions helps to discover novel inhibitors” (J Med Chem, 2012) one finds inhibition and IC50 data, which are given here for 31 compounds.

The target in test [1] is T1, Leukotriene A-4 hydrolase (Homo sapiens) (UniProt P09960).
T1 sequence (whole entry): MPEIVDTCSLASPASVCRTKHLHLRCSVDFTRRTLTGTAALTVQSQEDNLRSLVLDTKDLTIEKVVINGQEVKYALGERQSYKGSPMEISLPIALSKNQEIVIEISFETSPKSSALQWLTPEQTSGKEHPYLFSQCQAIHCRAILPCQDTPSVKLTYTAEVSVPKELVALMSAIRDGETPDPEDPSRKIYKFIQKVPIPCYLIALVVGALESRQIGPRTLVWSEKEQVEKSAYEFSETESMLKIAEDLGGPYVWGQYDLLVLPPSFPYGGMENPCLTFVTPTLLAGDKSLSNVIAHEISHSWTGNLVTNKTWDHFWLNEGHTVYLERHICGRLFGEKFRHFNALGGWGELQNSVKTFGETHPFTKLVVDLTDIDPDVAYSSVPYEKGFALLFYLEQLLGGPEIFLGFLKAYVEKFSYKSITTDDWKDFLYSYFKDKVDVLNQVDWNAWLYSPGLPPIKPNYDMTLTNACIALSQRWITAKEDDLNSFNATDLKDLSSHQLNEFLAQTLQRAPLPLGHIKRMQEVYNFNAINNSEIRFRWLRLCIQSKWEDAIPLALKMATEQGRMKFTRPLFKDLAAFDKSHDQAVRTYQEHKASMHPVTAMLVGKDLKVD
The test can be described thus: Inhibition of epoxide hydrolase activity of human recombinant leukotriene A4 hydrolase expressed in Escherichia coli assessed as LTB4 production at 100 uM by RP-HPLC.

Test [2] has as its target T2, Polyunsaturated fatty acid 5-lipoxygenase (Homo sapiens, UniProt P09917).
T2 sequence (P09917 whole entry): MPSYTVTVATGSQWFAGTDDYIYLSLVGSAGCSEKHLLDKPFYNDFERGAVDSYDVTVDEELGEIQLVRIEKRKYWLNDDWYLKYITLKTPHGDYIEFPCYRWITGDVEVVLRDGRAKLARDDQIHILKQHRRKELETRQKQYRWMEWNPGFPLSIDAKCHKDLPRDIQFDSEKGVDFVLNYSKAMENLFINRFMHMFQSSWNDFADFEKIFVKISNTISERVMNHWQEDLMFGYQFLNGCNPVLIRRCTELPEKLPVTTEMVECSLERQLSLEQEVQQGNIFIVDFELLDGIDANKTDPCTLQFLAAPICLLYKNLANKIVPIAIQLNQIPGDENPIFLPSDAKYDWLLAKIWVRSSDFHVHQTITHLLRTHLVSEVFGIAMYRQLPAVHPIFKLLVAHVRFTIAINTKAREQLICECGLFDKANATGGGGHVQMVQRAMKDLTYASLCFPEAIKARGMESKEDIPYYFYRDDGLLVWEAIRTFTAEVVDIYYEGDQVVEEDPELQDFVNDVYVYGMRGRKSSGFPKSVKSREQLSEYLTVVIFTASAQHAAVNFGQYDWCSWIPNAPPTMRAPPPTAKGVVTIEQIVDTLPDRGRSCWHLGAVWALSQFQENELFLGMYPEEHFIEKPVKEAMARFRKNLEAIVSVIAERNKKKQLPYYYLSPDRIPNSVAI
The test can be described thus: Inhibition of human 5-LOX in A23187-induced human whole blood assessed as reduction in LTB4 production pre-incubated for 20 mins before A23187 addition by enzyme immunoassay.

The target in test [3] is T2, Polyunsaturated fatty acid 5-lipoxygenase. The test can be described thus: Inhibition of human recombinant 5-LOX expressed in Escherichia coli […] incubated 10 mins before substrate addition by fluorescence spectrophotometry based cell free system assay.
In test [4] the target is T3, Prostaglandin G/H synthase 2 (Homo sapiens) (UniProt P35354).
T3 sequence (whole entry): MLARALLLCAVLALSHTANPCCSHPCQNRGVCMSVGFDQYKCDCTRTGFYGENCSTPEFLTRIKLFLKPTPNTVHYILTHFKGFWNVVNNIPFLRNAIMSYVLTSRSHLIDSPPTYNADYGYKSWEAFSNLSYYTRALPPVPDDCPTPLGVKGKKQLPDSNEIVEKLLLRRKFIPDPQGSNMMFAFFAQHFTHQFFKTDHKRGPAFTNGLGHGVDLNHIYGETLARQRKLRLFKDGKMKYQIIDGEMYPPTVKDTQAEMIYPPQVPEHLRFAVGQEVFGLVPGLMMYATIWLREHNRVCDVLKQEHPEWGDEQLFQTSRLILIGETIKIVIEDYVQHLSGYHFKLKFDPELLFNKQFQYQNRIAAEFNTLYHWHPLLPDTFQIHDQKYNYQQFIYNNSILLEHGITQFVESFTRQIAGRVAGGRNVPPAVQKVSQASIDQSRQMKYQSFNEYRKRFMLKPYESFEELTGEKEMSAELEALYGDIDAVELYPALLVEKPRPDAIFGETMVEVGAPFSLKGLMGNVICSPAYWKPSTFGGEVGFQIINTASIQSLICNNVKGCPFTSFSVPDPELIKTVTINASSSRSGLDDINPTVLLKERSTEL
The test can be described thus: Inhibition of purified COX2 assessed as formation of oxidized TMPD during reduction of PGG2 to PGH2 preincubated for 15 mins by chromogenic assay.

Test [5] has as its target Prostaglandin G/H synthase 1 (Homo sapiens) (UniProt P23219). The test can be described thus: Inhibition of purified COX1 assessed as formation of oxidized TMPD during reduction of PGG2 to PGH2 preincubated for 15 mins by chromogenic assay.
Test [6] deals with T4, Prostaglandin E synthase (Homo sapiens, UniProt O14684).
T4 sequence (O14684 whole entry): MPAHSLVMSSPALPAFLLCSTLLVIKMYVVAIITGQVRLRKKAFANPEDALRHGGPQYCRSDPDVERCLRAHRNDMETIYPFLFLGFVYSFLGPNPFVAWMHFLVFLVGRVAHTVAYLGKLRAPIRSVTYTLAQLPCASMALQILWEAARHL
The test can be described thus: Inhibition of mPGES1 in LPS-stimulated human whole blood assessed as reduction in PGE2 production incubated for 24 hrs at 37 degC by enzyme immunoassay.

Test [7] has as its target T4, Prostaglandin E synthase. The test can be described thus: Inhibition of mPGES1 expressed in Escherichia coli Rosetta-DE3 assessed as reduction in PGE2 production by enzyme immunoassay based cell-free system assay.

The structures appear in SMILES notation. pIC50: −log10 of the molar value. Bounds are passed on as bounds.

Chain of Prostaglandin G/H synthase 1 (Homo sapiens) (P23219 whole entry): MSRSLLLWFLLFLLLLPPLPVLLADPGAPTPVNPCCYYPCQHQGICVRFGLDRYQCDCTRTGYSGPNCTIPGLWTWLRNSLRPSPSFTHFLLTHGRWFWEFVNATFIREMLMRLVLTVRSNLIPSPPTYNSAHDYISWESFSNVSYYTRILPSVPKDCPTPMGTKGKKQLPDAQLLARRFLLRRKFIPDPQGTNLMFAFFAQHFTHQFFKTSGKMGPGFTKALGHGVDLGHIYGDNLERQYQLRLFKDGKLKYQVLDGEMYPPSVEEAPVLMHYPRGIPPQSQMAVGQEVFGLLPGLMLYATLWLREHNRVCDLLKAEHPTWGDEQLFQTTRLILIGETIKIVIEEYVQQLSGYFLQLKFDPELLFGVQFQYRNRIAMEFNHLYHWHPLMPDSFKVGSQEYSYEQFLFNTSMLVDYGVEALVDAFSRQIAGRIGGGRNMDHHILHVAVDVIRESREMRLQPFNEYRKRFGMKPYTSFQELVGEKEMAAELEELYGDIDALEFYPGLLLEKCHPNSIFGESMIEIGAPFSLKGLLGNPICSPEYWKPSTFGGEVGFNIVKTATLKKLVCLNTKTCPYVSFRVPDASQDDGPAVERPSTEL

Turning to `CCOc1ccc(S(=O)(=O)N(CC(=O)N2CCc3ccccc3C2)c2ccccc2)cc1`, the inhibition (commonly the change of the read-out against control, counted positive when it falls) in test [1] was < 50%. Besides, the pIC50 (in general, the IC50 on a negative log10 scale, so that one unit is a factor of ten) in test [2] is < 4.00; in test [3] it was 4.54.

On to `Cc1ccc(Sc2nc([N+](=O)[O-])nn2CC(=O)c2ccccc2)cc1`, for which the inhibition in test [1] was < 50%. In addition, the negative logarithm of the IC50 (pIC50) in test [2] was 4.12; in test [3], 5.85.

For `c1ccc(SCc2nnc3sc(-c4ccc5c(c4)OCCO5)nn23)cc1`, the inhibition in test [1] is < 50%. Moreover, the figures for the pIC50 in test [2] and in test [3] were < 4.00 and 4.15, respectively.

Take `O=c1/c(=C/c2cc(I)c(O)c([N+](=O)[O-])c2)sc2nc3ccccc3n12`: the inhibition in test [1] was < 50%. Further, the pIC50 in test [2] is < 4.00; in test [3], 4.47.

Turning to `O=[N+]([O-])c1ccc(Cl)c(S(=O)(=O)n2cnc3ccccc32)c1`, the inhibition in test [1] was < 50%. Also, the pIC50 in test [2] is 5.09; in test [3], 5.16.

`COC(=O)c1ccc(NC(=S)NC(=O)c2cc(-c3ccccc3)nc3ccccc23)cc1`: the inhibition in test [1] is < 50%. For the same compound, the pIC50 was < 4.00 in test [2] and 4.35 in test [3].

On to `COc1ccc(/C=C2\N=C(c3ccc(Cl)c([N+](=O)[O-])c3)OC2=O)c(OC)c1OC`, for which the inhibition in test [1] was < 50%. Also, the pIC50 in test [2] was < 4.00; in test [3], 4.70.

As for `O=C(NCCNC(=O)c1ccc([N+](=O)[O-])o1)c1ccc2ccccc2n1`, the inhibition in test [1] was < 50%. The pIC50 was < 4.00 in test [2] and 4.09 in test [3].

With `Cn1ncc(Cl)c1C(=O)N/N=C/c1ccccc1OC(=O)c1ccc([N+](=O)[O-])cc1`, the inhibition in test [1] was < 50%. Moreover, the pIC50 in test [2] was < 4.00; in test [3] it was 5.27.

Consider `O=C(CSc1nnnn1-c1ccc(Cl)c(C(=O)O)c1)Nc1ccc(F)cc1`, for which the inhibition in test [1] was < 50%. The negative logarithm of the IC50 (pIC50) in test [2] was < 4.00; in test [3], 4.82.

Regarding `O=C(Oc1cccc2ccccc12)c1cc([N+](=O)[O-])cc([N+](=O)[O-])c1`, the inhibition in test [4], in test [5] and in test [1] was < 50% each time. Moreover, the pIC50 is 5.12 on Prostaglandin E synthase [6], 5.44 at Prostaglandin E synthase [7], 5.07 in test [2] and 5.98 in test [3].

Take `COc1cc(Cl)cc(/C=C2/SC(=O)N(Cc3ccc(F)cc3)C2=O)c1O`: the inhibition in test [1] is < 50%. Besides, the results for the pIC50 in test [2] and in test [3] were < 4.00 and 4.17, respectively.

Regarding `c1ccc2c(c1)OCC(c1nn3c(Cn4nnc5ccccc54)nnc3s1)O2` (stereo not drawn), in test [1], the inhibition was < 50%. The figures for the pIC50 in test [2] and in test [3] were < 4.00 and 4.01, respectively.

In the case of `CC(C)(C)OC(=O)NNS(=O)(=O)c1cccc([N+](=O)[O-])c1`, in test [1], the inhibition was < 50%. The pIC50 is < 4.00 in test [2] and 4.09 in test [3].

Regarding `N#C/C(=C(/O)c1ccc(Cl)c([N+](=O)[O-])c1)c1nc2ccccc2s1`, the inhibition in test [1] is < 50%. Further, the figures for the pIC50 in test [2] and in test [3] were < 4.00 and 4.28, respectively.

On to `O=C1OC(c2ccc3ccccc3c2)=N/C1=C\c1ccc(Cl)cc1`, for which the inhibition in test [1] was < 50%. Also, the pIC50 was < 4.00 in test [2] and 4.10 in test [3].

Consider `O=C(COC(=O)c1ccc(C(=O)c2ccc([N+](=O)[O-])cc2)cc1)c1ccccc1`, for which the inhibition in test [1] is < 50%. For the same compound, the figures for the pIC50 in test [2] and in test [3] were 4.32 and 5.83, respectively.

As for `CCOc1cc(/C=N\Nc2nc3ccccc3s2)cc([N+](=O)[O-])c1O`, the inhibition in test [1] is < 50%. The pIC50 was 4.40 in test [2] and 6.07 in test [3].

Consider `COc1ccc(-c2nnc3sc(/C=C/c4ccccc4OC)nn23)cc1`, for which the inhibition in test [1] is < 50%. The pIC50 in test [2] was < 4.00; in test [3], 4.77.

On to `O=C(O/N=C/c1ccc(Br)cc1)c1cc([N+](=O)[O-])cc([N+](=O)[O-])c1`, for which, in test [1], the inhibition was < 50%. In addition, the pIC50 in test [2] was 4.44; in test [3], 6.21.

Take `O=[N+]([O-])c1ccc(CSc2cc3ccccc3[nH]2)c([N+](=O)[O-])c1`: the inhibition in test [1] is < 50%. For the same compound, the pIC50 was 4.62 in test [2] and 6.10 in test [3].

On to `Cc1cccc(NC2=NS(=O)(=O)c3cc([N+](=O)[O-])ccc32)c1`, for which the inhibition in test [4], in test [5] and in test [1] was < 50% in each case.

In the case of `O=C1c2ccc([N+](=O)[O-])cc2C(=O)N1CNc1ccc([N+](=O)[O-])cc1`, in test [1], the inhibition is < 50%. Also, the pIC50 is 4.42 in test [2] and 5.28 in test [3].

As for `Cc1cccc(N=C2NS(=O)(=O)c3cc([N+](=O)[O-])ccc32)c1`, the pIC50 at Prostaglandin E synthase [6] was 4.81; at Prostaglandin E synthase [7] it was 5.17; in test [2] it was 5.01; in test [3] it was 5.73.

As for `C/C(NCc1ccc(Cl)c(Cl)c1)=C1\C(=O)N(c2nc3ccccc3s2)N=C1C(F)(F)F`, the inhibition in test [1] is < 50%. The negative-log IC50 (pIC50) in test [2] was < 4.00; in test [3], 4.15.

On to `O=C(NC1c2ccccc2Oc2ccccc21)c1ccc(Cl)c([N+](=O)[O-])c1`, for which the inhibition in test [1] was < 50%. Further, the pIC50 in test [2] is < 4.00; in test [3], 4.17.

On to `Cc1cc(Cl)ccc1NC(=O)Cn1nnc2sc3c(c2c1=O)CCCC3`, for which the inhibition in test [1] was < 50%. In addition, the pIC50 in test [2] was < 4.00; in test [3], 4.36.

Take `Cc1nn(Cc2ccc(F)cc2)c(C)c1NC(=O)C1CC(c2cccc(Br)c2)=NO1` (stereo not drawn): in test [1], the inhibition is < 50%. Also, the pIC50 in test [2] was < 4.00; in test [3], 4.19.

For the compound `Cc1ccc2cccc(OC(=O)c3cccc([N+](=O)[O-])c3)c2n1`, in test [1], the inhibition is < 50%. Also, the pIC50 was < 4.00 in test [2] and 5.34 in test [3].

As for `Cc1cccc(C2=N/C(=C\c3ccc(-c4cccc(Cl)c4)o3)C(=O)O2)c1`, in test [1], the inhibition was < 50%. Further, the values for the pIC50 in test [2] and in test [3] were < 4.00 and 4.85, respectively.

For `Clc1ccc(-c2nn3c(Cc4ccccc4)nnc3s2)cc1Cl`, the inhibition in test [1] was < 50%. In addition, the pIC50 is < 4.00 in test [2] and 4.43 in test [3].
